The record followed here is US8569313B2, “Meta-substituted phenyl sulfonyl amides of secondary amino acid amides, the production thereof, and use thereof as matriptase inhibitors” (The Medicines Company (Leipzig) GmbH, priority 2007, dated 2013).

The target of the experiment is matriptase (Homo sapiens (Human), UniProt Q9Y5Y6). Description: Determination of the matriptase inhibition (chromogenic substrate CH3SO2-D-Cha-Gly-Arg-pNA, Dixon Ki). The format is biochemical. The settings on record: 25° C., pH 8.0; means of at least two determinations. As for the experimental part: Determination of the Matriptase Inhibition
matriptase, sequence (Q9Y5Y6 whole entry): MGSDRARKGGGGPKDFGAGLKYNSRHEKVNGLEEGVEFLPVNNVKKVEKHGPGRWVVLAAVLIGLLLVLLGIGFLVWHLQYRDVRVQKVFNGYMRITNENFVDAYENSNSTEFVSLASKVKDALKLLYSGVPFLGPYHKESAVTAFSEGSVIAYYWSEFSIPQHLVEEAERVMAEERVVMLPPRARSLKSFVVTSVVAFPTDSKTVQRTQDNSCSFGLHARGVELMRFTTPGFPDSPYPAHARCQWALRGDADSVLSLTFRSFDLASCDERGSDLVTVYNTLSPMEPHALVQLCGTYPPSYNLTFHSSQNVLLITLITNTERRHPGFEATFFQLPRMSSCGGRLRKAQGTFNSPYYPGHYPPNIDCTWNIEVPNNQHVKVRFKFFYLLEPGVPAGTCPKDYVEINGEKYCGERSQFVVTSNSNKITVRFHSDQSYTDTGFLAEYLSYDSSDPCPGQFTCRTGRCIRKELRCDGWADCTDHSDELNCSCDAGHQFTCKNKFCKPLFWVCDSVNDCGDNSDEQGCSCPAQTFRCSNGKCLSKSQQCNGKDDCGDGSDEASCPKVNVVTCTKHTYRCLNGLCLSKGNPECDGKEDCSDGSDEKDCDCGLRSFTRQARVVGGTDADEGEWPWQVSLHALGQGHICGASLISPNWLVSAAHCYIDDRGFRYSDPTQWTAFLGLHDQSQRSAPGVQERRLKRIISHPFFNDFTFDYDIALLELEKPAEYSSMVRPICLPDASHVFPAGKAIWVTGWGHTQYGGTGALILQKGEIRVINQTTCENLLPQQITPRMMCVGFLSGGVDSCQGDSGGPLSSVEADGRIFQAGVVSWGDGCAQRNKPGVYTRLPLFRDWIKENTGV
To determine the inhibition effect, 200 μl Tris buffer (inhibitor contains 0.05 M, 0.154 M NaCl, 5% ethanol, pH 8.0), 25 μl substrate (CH3SO2-D-Cha-Gly-Arg-pNA; 2 and 1 mM) and 50 μl matriptase (0.5 μg/ml) were incubated at 25° C. After 3 min the reaction was halted through the addition of 25 μl acetic acid (50%) and the Absorption determined at 405 nm by means of a Microplate Reader (Multiscan Ascent from the company Thermo Electron Corporation). The Ki values were calculated according to Dixon (Biochem. J. 55, 170-171, 1953) through linear regression by means of a computer program. The Ki-values are the means of at least two determinations.
Ki value for the inhibition of matriptase in nM (n.d.=not determined)
For the compound `COc1ccc(-c2cccc(S(=O)(=O)NC(Cc3cccc(C(=N)N)c3)C(=O)N3CCC(CCN)CC3)c2)cc1OC` (stereo not drawn) [Inhibitor 1, 3-(3,4-dimethoxyphenyl)phenyl sulfonyl-d/l-Phe(3-Am)-4-(2-aminoethyl)piperidide], affinity was put at a Ki of 5.4 nM.
In the case of `N=C(N)c1cccc(CC(NS(=O)(=O)c2cccc(-c3ccccc3)c2)C(=O)N2CCC(CCN)CC2)c1` (stereo not drawn) [Inhibitor 2], the Ki (commonly the dissociation constant of the complex between target and ligand, obtained from inhibition or displacement) worked out at 100 nM.
`COc1ccc(-c2cccc(S(=O)(=O)NC(Cc3cccc(C(=N)N)c3)C(=O)N3CCC(CCN)CC3)c2)cc1` (stereo not drawn) [Inhibitor 3]: the affinity, expressed as Ki, was 6 nM.
Next, `CCOc1ccc(-c2cccc(S(=O)(=O)NC(Cc3cccc(C(=N)N)c3)C(=O)N3CCC(CCN)CC3)c2)cc1` (stereo not drawn) [Inhibitor 4]: 5.4 nM; `CCc1ccc(-c2cccc(S(=O)(=O)NC(Cc3cccc(C(=N)N)c3)C(=O)N3CCC(CCN)CC3)c2)cc1` (stereo not drawn) [Inhibitor 5]: 2.5 nM.
The compound `CC(C)Oc1ccc(-c2cccc(S(=O)(=O)NC(Cc3cccc(C(=N)N)c3)C(=O)N3CCC(CCN)CC3)c2)cc1` (stereo not drawn) [Inhibitor 6] yielded a Ki of 12 nM.
The compound `N=C(N)c1cccc(CC(NS(=O)(=O)c2cccc(-c3ccc(Cl)cc3)c2)C(=O)N2CCC(CCN)CC2)c1` (stereo not drawn) [Inhibitor 7] showed an inhibitory constant (Ki) of 26 nM.
Next, `N=C(N)c1cccc(CC(NS(=O)(=O)c2cccc(-c3cccc(Cl)c3)c2)C(=O)N2CCC(CCN)CC2)c1` (stereo not drawn) [Inhibitor 8]: 91 nM; `N=C(N)c1cccc(CC(NS(=O)(=O)c2cccc(-c3ccccc3Cl)c2)C(=O)N2CCC(CCN)CC2)c1` (stereo not drawn) [Inhibitor 9]: 29 nM.
Next, `N=C(N)c1cccc(CC(NS(=O)(=O)c2cccc(-c3ccncc3)c2)C(=O)N2CCC(CCN)CC2)c1` (stereo not drawn) [Inhibitor 10]: 60 nM; `N=C(N)c1cccc(CC(NS(=O)(=O)c2cccc(-c3cccnc3)c2)C(=O)N2CCC(CCN)CC2)c1` (stereo not drawn) [Inhibitor 11]: 47 nM.
Next, `Cc1nccc(-c2cccc(S(=O)(=O)N[C@@H](Cc3cccc(C(=N)N)c3)C(=O)N3CCC(CCN)CC3)c2)n1` [Inhibitor 12]: 28 nM; `N=C(N)c1cccc(CC(NS(=O)(=O)c2cccc(-c3ccc4[nH]ccc4c3)c2)C(=O)N2CCC(CCN)CC2)c1` (stereo not drawn) [Inhibitor 13]: 13 nM; `N=C(N)c1cccc(CC(NS(=O)(=O)c2cccc(-c3ccc(N)nc3)c2)C(=O)N2CCC(CCN)CC2)c1` (stereo not drawn) [Inhibitor 14]: 4.2 nM.
Compound `N=C(N)c1cccc(CC(NS(=O)(=O)c2cccc(C3CCC(N)=NC3)c2)C(=O)N2CCC(CCN)CC2)c1` (stereo not drawn) [Inhibitor 15] had a Ki of 0.069 nM.
Next, `N=C(N)c1cccc(C[C@H](NS(=O)(=O)c2cccc(CCCCN)c2)C(=O)N2CCC(CCN)CC2)c1` [Inhibitor 16, 3-(1-aminobutyl)-phenyl sulfonyl-Phe(3-Amidino)-4-(2-aminoethyl)piperidide]: 0.74 nM.
To `CNC(=O)CCCC1CCN(C(=O)[C@H](Cc2cccc(C(=N)N)c2)NS(=O)(=O)c2cccc(NC(=O)CCN)c2)CC1` [Inhibitor 17, N-(3-β-Ala)amidophenyl sulfonyl-Phe(3-Am)-piperidine buteryl-N-methylamide] belongs 6.3 nM; to `CCOc1ccc(-c2cccc(S(=O)(=O)N[C@@H](Cc3cccc(C(=N)N)c3)C(=O)N3CCC(CCCC(=O)NC)CC3)c2)cc1` [Inhibitor 18], 8.1 nM; to `CCc1ccc(-c2cccc(S(=O)(=O)N[C@@H](Cc3cccc(C(=N)N)c3)C(=O)N3CCC(CCCC(=O)NC)CC3)c2)cc1` [Inhibitor 19], 24.5 nM.
For the compound `COC(=O)CCCC1CCN(C(=O)[C@H](Cc2cccc(C(=N)N)c2)NS(=O)(=O)c2cccc(NC(=O)CCN)c2)CC1` [Inhibitor 20], the affinity corresponds to a Ki of 6.1 nM.
To `N=C(N)c1cccc(C[C@H](NS(=O)(=O)c2cccc(NC(=O)CCN)c2)C(=O)N2CCC(CCCC(N)=O)CC2)c1` [Inhibitor 21] belongs 11.8 nM; to `N=C(N)c1cccc(C[C@H](NS(=O)(=O)c2cccc(NC(=O)CCN)c2)C(=O)N2CCC(CCCC(=O)O)CC2)c1` [Inhibitor 22], 255 nM.
`N=C(N)c1cccc(C[C@H](NS(=O)(=O)c2cccc(NC(=O)CCN)c2)C(=O)N2CCC(C(N)=O)CC2)c1` [Inhibitor 23] registered an inhibitory constant (Ki) of 12.1 nM.
To `N=C(N)c1cccc(C[C@H](NS(=O)(=O)c2cccc(NC(=O)CCN)c2)C(=O)N2CCCC(C(N)=O)C2)c1` (stereo partly drawn) [Inhibitor 24] belongs 30.5 nM; to `N=C(N)c1cccc(C[C@H](NS(=O)(=O)c2cccc(NC(=O)CCN)c2)C(=O)N2CCN(C(=O)OCc3ccccc3)CC2)c1` [Inhibitor 26], 6.1 nM; to `N=C(N)c1cccc(C[C@H](NS(=O)(=O)c2cccc(NC(=O)CCN)c2)C(=O)N2CCNCC2)c1` [Inhibitor 27], 36 nM.
As to `N=C(N)c1cccc(C[C@H](NS(=O)(=O)c2cccc(NC(=O)CCN)c2)C(=O)N2CCCCC2)c1` [Inhibitor 28], the inhibition constant (Ki) came out at 32 nM.
To `CNC(=O)CCCC1CCN(C(=O)C(Cc2cccc(C(=N)N)c2)NS(=O)(=O)c2cccc(-n3ncccc3=O)c2)CC1` (stereo not drawn) [Inhibitor 29] belongs 98 nM.
Turning to `CNC(=O)CCCC1CCN(C(=O)[C@H](Cc2cccc(C(=N)N)c2)NS(=O)(=O)c2cccc(N3CCCCC3=O)c2)CC1` [Inhibitor 30], the inhibition constant Ki was 31 nM.
To `CCc1ccc(-c2cccc(S(=O)(=O)N[C@@H](Cc3cccc(/C(N)=N\O)c3)C(=O)N3CCC(CCCC(=O)NC)CC3)c2)cc1` [Inhibitor 33] belongs 24000 nM; to `NCCC(=O)Nc1cccc(S(=O)(=O)N[C@@H](Cc2cccc(CN)c2)C(=O)N2CCC(CCN)CC2)c1` [Inhibitor 34, H-βAla-3-NH-phenyl sulfonyl-Phe(3-Ame)-(2-aminoethyl)piperidide], 56 nM.
For the compound `COc1ccc(-c2cccc(S(=O)(=O)NC(Cc3cccc(CN)c3)C(=O)N3CCC(CCN)CC3)c2)cc1` (stereo not drawn) [Inhibitor 35], the inhibitory constant (Ki) was determined as 145 nM.
Next, `NCCC(=O)Nc1cccc(S(=O)(=O)N[C@@H](Cc2cccc(CN)c2)C(=O)N2CCN(C(=O)OCc3ccccc3)CC2)c1` [Inhibitor 36]: 44.5 nM; `N=C(N)c1cccc(C[C@H](NS(=O)(=O)c2cccc(NC(=O)CCO)c2)C(=O)N2CCC(CCN)CC2)c1` [Inhibitor 37]: 117 nM; `CNC(=O)CCCC1CCN(C(=O)[C@H](Cc2cccc(C(=N)N)c2)NS(=O)(=O)c2cccc(NC(=O)C3CNC3)c2)CC1` [Inhibitor 38]: 16 nM.
Compound `N=C(N)c1cccc(C[C@H](NS(=O)(=O)c2cccc(NC(=O)C3CNC3)c2)C(=O)N2CCC(CCN)CC2)c1` [Inhibitor 40] yielded an inhibition constant (Ki) of 1.7 nM.
To `CNC(=O)CCCC1CCN(C(=O)[C@H](Cc2cccc(C(=N)N)c2)NS(=O)(=O)c2cccc(-c3ccc(C(C)(C)C)cc3)c2)CC1` [Inhibitor 41] belongs 87 nM; to `CNC(=O)CCCC1CCN(C(=O)[C@H](Cc2cccc(C(=N)N)c2)NS(=O)(=O)c2cccc(-c3ccc(C(C)C)cc3)c2)CC1` [Inhibitor 44], 23.5 nM.
Take `CNC(=O)CCCC1CCN(C(=O)[C@H](Cc2cccc(C(=N)N)c2)NS(=O)(=O)c2cccc(-c3ccc(N)nc3)c2)CC1` [Inhibitor 46]: the inhibitory constant (Ki) was 11 nM.
`CNC(=O)CCCC1CCN(C(=O)[C@H](Cc2cccc(C(=N)N)c2)NS(=O)(=O)c2cccc(C3CCC(N)=NC3)c2)CC1` (stereo partly drawn) [Inhibitor 47] gave an inhibition constant (Ki) of 0.49 nM.
Next, `N=C(N)c1cccc(C[C@H](NS(=O)(=O)c2cccc(NC(=O)CCN)c2)C(=O)N2CCC(C(=O)OCc3ccccc3)CC2)c1` [Inhibitor 48]: 0.7 nM; “H-βAla-3-NH-phenyl sulfonyl-Phe(3-Am)-4-piperidyl-(CH2)3—CONH—(CH2)2-PEG10000-CH3 [Inhibitor 50]”: 54 nM.
